For one experiment, the system named is Escherichia coli. The experiment can be described thus: Inhibition of ZipA FtsZ binding at 1 mM using an optical biosensor system.
Experiment [1] is described as follows: Antibacterial activity against Gram-positive, Gram-negative bacteria and Escherichia coli. Format: functional.

Here are results for 20 compounds from ChEMBL document CHEMBL1147622, “Design and synthesis of indolo[2,3-a]quinolizin-7-one inhibitors of the ZipA-FtsZ interaction” (2004).

Some results are limits rather than exact numbers.

As a reminder, the inhibition is the drop in the measured response relative to a control, in per cent. The low end stands for a response near the control, the high end for a response far below the control. Usually MIC stands for the lowest concentration found to suppress growth. A low value points to inhibition by little substance.

As for `O=C(Cn1c2c(c3ccccc31)C(=O)CN1CCCCC21)NC1CCCC1` (stereo not given), in the experiment on Escherichia coli, the inhibition is 31%. For the same compound, the MIC in experiment [1] was no less than 200 µM.
Turning to `N#CCCNC(=O)CCCn1c2c(c3ccccc31)C(=O)CN1CCCCC21` (stereo not given), the inhibition in the experiment with Escherichia coli stood at 39%. For the same compound, the MIC in experiment [1] is no less than 200 µM.
Consider `O=C(NCCCn1c2c(c3ccccc31)C(=O)CN1CCCCC21)c1ccc(Cl)c(Cl)c1` (stereo not given), for which, in the experiment on Escherichia coli, the inhibition is 8%. In experiment [1], this compound displayed an MIC of no less than 200 µM.
Turning to `Cc1ccc(CNC(=O)CCCn2c3c(c4ccccc42)C(=O)CN2CCCCC32)o1` (stereo not given), the inhibition in the experiment with Escherichia coli came to 23%. In experiment [1], this compound returned an MIC of no less than 200 µM.
Turning to `N#CCCNC(=O)CCn1c2c(c3ccccc31)C(=O)CN1CCCCC21` (stereo not given), the inhibition with Escherichia coli worked out at 22%. In experiment [1], the MIC is no less than 200 µM.
The matching figures for `CS(=O)(=O)NCCCn1c2c(c3ccccc31)C(=O)CN1CCCCC21` (stereo not given): 41% and no less than 200 µM.
With `Cc1ccc(CNC(=O)CCn2c3c(c4ccccc42)C(=O)CN2CCCCC32)o1` (stereo not given), the inhibition with Escherichia coli stood at 32%. In experiment [1], this compound showed an MIC of no less than 200 µM.
Take `O=C(CCCn1c2c(c3ccccc31)C(=O)CN1CCCCC21)NCC(F)(F)F` (stereo not given): in the experiment with Escherichia coli, the inhibition worked out at 21%. The same compound gave an MIC in experiment [1] of no less than 200 µM.
In the experiment on Escherichia coli, `O=C1CN2CCCCC2c2c1c1ccccc1n2CCCN1CC(Br)C1=O` (stereo not given) gave an inhibition of 38%. Moreover, the MIC in experiment [1] is no less than 200 µM.
With `O=C(Cc1ccc(F)cc1)NCCCn1c2c(c3ccccc31)C(=O)CN1CCCCC21` (stereo not given), the inhibition with Escherichia coli stood at 33%. The compound also yielded an MIC in experiment [1] of no less than 200 µM.
`NCCCn1c2c(c3ccccc31)C(=O)CN1CCCCC21` (stereo not given) returned an inhibition with Escherichia coli of 47%. In experiment [1], this compound gave an MIC of no less than 200 µM.
In the case of `Cc1nnsc1S(=O)(=O)NCCCn1c2c(c3ccccc31)C(=O)CN1CCCCC21` (stereo not given), the inhibition in the experiment with Escherichia coli worked out at 30%. The same compound returned an MIC in experiment [1] of no less than 200 µM.
The compound `O=C(NCCCn1c2c(c3ccccc31)C(=O)CN1CCCCC21)c1ccco1` (stereo not given) showed an inhibition with Escherichia coli of 38%. This compound also displayed an MIC in experiment [1] of no less than 200 µM.
In turn, `CC(C)S(=O)(=O)NCCCn1c2c(c3ccccc31)C(=O)CN1CCCCC21` (stereo not given) showed an inhibition with Escherichia coli of 46%. In addition, the minimal inhibitory concentration (MIC) in experiment [1] was no less than 200 µM.
The like results for `O=C1CN2CCCCC2c2c1c1ccccc1n2CCCNS(=O)(=O)c1cccs1` (stereo not given) were, in that order, 25% and no less than 200 µM.
With `O=C(CCCn1c2c(c3ccccc31)C(=O)CN1CCCCC21)NC1CCCC1` (stereo not given), in the experiment with Escherichia coli, the inhibition turned out to be 24%. Further, the MIC in experiment [1] is no less than 200 µM.
In turn, `O=C1CN2CCCCC2c2[nH]c3ccccc3c21` (stereo not given) displayed an inhibition with Escherichia coli of 39%. This compound came in with an MIC in experiment [1] of no less than 200 µM.
The matching figures for `O=C1CN2CCCCC2c2c1c1ccccc1n2CCCNS(=O)(=O)c1cc(Cl)sc1Cl` (stereo not given): 12% and no less than 200 µM.
Regarding `CCCCS(=O)(=O)NCCCn1c2c(c3ccccc31)C(=O)CN1CCCCC21` (stereo not given), the inhibition in the experiment with Escherichia coli amounted to 25%. The MIC in experiment [1] was no less than 200 µM.
With `O=C1CN2CCCCC2c2c1c1ccccc1n2CCCNS(=O)(=O)c1ccc(Cl)s1` (stereo not given), in the experiment with Escherichia coli, the inhibition amounted to 11%. In experiment [1], this compound showed an MIC of no less than 200 µM.
